Measurements published in PubChem BioAssay AID2060905 (Molecular Pharmacology Branch, DTP, NCI, 2025).

System: 282377-053-R-J1-PDC complex spheroid viability
Assay: Anticancer human tumor 282377-053-R-J1-PDC patient-derived colon adenocarcinoma cell line growth inhibition [RAS]
Details: for IC50: curve of first compound; for viability, T/C: stronger effect = lower value
Method in brief: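 Multi-cell-type spheroids: tumor cells plus HUVEC endothelial cells and mesenchymal stem cells. RAS-pathway inhibitors were combined with targeted agents, each dosed in half-log steps down from clinical Cmax, or from 10 microM when Cmax was unknown.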
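Note: spheroids exposed to agents for seven days before readout.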
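Throughout, for viability, T/C: luminescence viability as percent of DMSO vehicle control wells.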

## CCC(CC)c1cc(NC2CCC(N)C2)n2nccc2n1 (centres undefined) + CCn1c(-c2cc(N3CCN(C)CC3)cnc2C(C)OC)c2c3cc(ccc31)-c1csc(n1)CC(NC(=O)C1CC1C)C(=O)N1CCCC(N1)C(=O)OCC(C)(C)C2
Second compound 0.000949 µM
  IC50: 1.71 µM
Second compound 0.003 µM
  IC50: 1.48 µM
Second compound 0.00949 µM
  IC50: 1.72 µM
Second compound 0.03 µM
  IC50: 1.53 µM
Second compound 0.0949 µM
  IC50: 1.78 µM
Second compound 0.3 µM
  IC50: 1.8 µM
Second compound 0.000949 µM, first compound 0.0316 µM
  viability, T/C: 85.5%
Second compound 0.000949 µM, first compound 0.1 µM
  viability, T/C: 98.8%
Second compound 0.000949 µM, first compound 0.316 µM
  viability, T/C: 98.5%
Second compound 0.000949 µM, first compound 1 µM
  viability, T/C: 84.1%
Second compound 0.000949 µM, first compound 3.16 µM
  viability, T/C: 11.1%
Second compound 0.000949 µM, first compound 10 µM
  viability, T/C: 6.68%
Second compound 0.003 µM, first compound 0.0316 µM
  viability, T/C: 89.4%
Second compound 0.003 µM, first compound 0.1 µM
  viability, T/C: 86.5%
Second compound 0.003 µM, first compound 0.316 µM
  viability, T/C: 81.2%
Second compound 0.003 µM, first compound 1 µM
  viability, T/C: 70.5%
Second compound 0.003 µM, first compound 3.16 µM
  viability, T/C: 10.4%
Second compound 0.003 µM, first compound 10 µM
  viability, T/C: 3.1%
Second compound 0.00949 µM, first compound 0.0316 µM
  viability, T/C: 81.9%
Second compound 0.00949 µM, first compound 0.1 µM
  viability, T/C: 95.3%
Second compound 0.00949 µM, first compound 0.316 µM
  viability, T/C: 72%
Second compound 0.00949 µM, first compound 1 µM
  viability, T/C: 90.7%
Second compound 0.00949 µM, first compound 3.16 µM
  viability, T/C: 10.8%
Second compound 0.00949 µM, first compound 10 µM
  viability, T/C: 4.36%
Second compound 0.03 µM, first compound 0.0316 µM
  viability, T/C: 76%
Second compound 0.03 µM, first compound 0.1 µM
  viability, T/C: 82%
Second compound 0.03 µM, first compound 0.316 µM
  viability, T/C: 85.7%
Second compound 0.03 µM, first compound 1 µM
  viability, T/C: 71.2%
Second compound 0.03 µM, first compound 3.16 µM
  viability, T/C: 13.2%
Second compound 0.03 µM, first compound 10 µM
  viability, T/C: 7.45%
Second compound 0.0949 µM, first compound 0.0316 µM
  viability, T/C: 95.7%
Second compound 0.0949 µM, first compound 0.1 µM
  viability, T/C: 87.2%
Second compound 0.0949 µM, first compound 0.316 µM
  viability, T/C: 76.1%
Second compound 0.0949 µM, first compound 1 µM
  viability, T/C: 88.6%
Second compound 0.0949 µM, first compound 3.16 µM
  viability, T/C: 13%
Second compound 0.0949 µM, first compound 10 µM
  viability, T/C: 2.75%
Second compound 0.3 µM, first compound 0.0316 µM
  viability, T/C: 94.7%
Second compound 0.3 µM, first compound 0.1 µM
  viability, T/C: 78%
Second compound 0.3 µM, first compound 0.316 µM
  viability, T/C: 86.1%
Second compound 0.3 µM, first compound 1 µM
  viability, T/C: 94.9%
Second compound 0.3 µM, first compound 3.16 µM
  viability, T/C: 13.4%
Second compound 0.3 µM, first compound 10 µM
  viability, T/C: 3.35%

## Nc1ccn(C2OC(CO)C(O)C2(F)F)c(=O)n1 (centres undefined) + C=CC(=O)N1CCN(c2nc(OCC3CCCN3C)nc3c(F)c(-c4nc(N)cc(C)c4C(F)(F)F)c(Cl)cc23)C(C)C1
Second compound 0.00316 µM
  IC50: 0.266 µM
Second compound 0.01 µM
  IC50: 0.257 µM
Second compound 0.0316 µM
  IC50: 0.215 µM
Second compound 0.1 µM
  IC50: 0.278 µM
Second compound 0.316 µM
  IC50: 0.243 µM
Second compound 1 µM
  IC50: 0.58 µM
Second compound 0.00316 µM, first compound 0.00316 µM
  viability, T/C: 108%
Second compound 0.00316 µM, first compound 0.01 µM
  viability, T/C: 98.9%
Second compound 0.00316 µM, first compound 0.0316 µM
  viability, T/C: 99%
Second compound 0.00316 µM, first compound 0.1 µM
  viability, T/C: 80.1%
Second compound 0.00316 µM, first compound 0.316 µM
  viability, T/C: 44.1%
Second compound 0.00316 µM, first compound 1 µM
  viability, T/C: 31.6%
Second compound 0.01 µM, first compound 0.00316 µM
  viability, T/C: 98.3%
Second compound 0.01 µM, first compound 0.01 µM
  viability, T/C: 111%
Second compound 0.01 µM, first compound 0.0316 µM
  viability, T/C: 102%
Second compound 0.01 µM, first compound 0.1 µM
  viability, T/C: 72.4%
Second compound 0.01 µM, first compound 0.316 µM
  viability, T/C: 47.8%
Second compound 0.01 µM, first compound 1 µM
  viability, T/C: 35%
Second compound 0.0316 µM, first compound 0.00316 µM
  viability, T/C: 117%
Second compound 0.0316 µM, first compound 0.01 µM
  viability, T/C: 110%
Second compound 0.0316 µM, first compound 0.0316 µM
  viability, T/C: 118%
Second compound 0.0316 µM, first compound 0.1 µM
  viability, T/C: 69.2%
Second compound 0.0316 µM, first compound 0.316 µM
  viability, T/C: 46.9%
Second compound 0.0316 µM, first compound 1 µM
  viability, T/C: 33.8%
Second compound 0.1 µM, first compound 0.00316 µM
  viability, T/C: 90.1%
Second compound 0.1 µM, first compound 0.01 µM
  viability, T/C: 101%
Second compound 0.1 µM, first compound 0.0316 µM
  viability, T/C: 101%
Second compound 0.1 µM, first compound 0.1 µM
  viability, T/C: 79.8%
Second compound 0.1 µM, first compound 0.316 µM
  viability, T/C: 47.2%
Second compound 0.1 µM, first compound 1 µM
  viability, T/C: 34.4%
Second compound 0.316 µM, first compound 0.00316 µM
  viability, T/C: 117%
Second compound 0.316 µM, first compound 0.01 µM
  viability, T/C: 125%
Second compound 0.316 µM, first compound 0.0316 µM
  viability, T/C: 107%
Second compound 0.316 µM, first compound 0.1 µM
  viability, T/C: 65.6%
Second compound 0.316 µM, first compound 0.316 µM
  viability, T/C: 52.2%
Second compound 0.316 µM, first compound 1 µM
  viability, T/C: 32.9%
Second compound 1 µM, first compound 0.00316 µM
  viability, T/C: 101%
Second compound 1 µM, first compound 0.01 µM
  viability, T/C: 101%
Second compound 1 µM, first compound 0.0316 µM
  viability, T/C: 99%
Second compound 1 µM, first compound 0.1 µM
  viability, T/C: 88%
Second compound 1 µM, first compound 0.316 µM
  viability, T/C: 65.3%
Second compound 1 µM, first compound 1 µM
  viability, T/C: 36.5%
